Results reported in patent publication US11186617B2, “Epitope” (HOYU CO., LTD., priority 2017, dated 2021).
Entries after “also recorded” stand apart in the source; their conditions may differ.

Tests used:
[1] = test system: IgE antibody in the serum from a WDEIA patient; assay: Epitope mapping (1): peptide array, chemiluminescent measurement of IgE binding using human serum; conditions: 15-amino-acid peptides on array; 2% serum; sera from WDEIA patients 1 to 3 vs healthy individuals 1 and 2; FIG. 1
Procedure: Epitope mapping was performed by using a library of overlapping peptides (15 amino acids in length) corresponding to the full-length amino acid sequence of ω-5 gliadin from bread wheat (SEQ ID NO: 51).
Each synthesized peptide was shifted by 10 amino acids. In other words, each peptide overlaps with the previous peptide and the next peptide, each by 5 amino acids.
Intavis CelluSpots™ technique was used for preparing a peptide array. Specifically, the peptide array was prepared by the following procedures: (1) synthesizing a target peptide on an amino-modified cellulose disk by using an automated synthesizer (MultiPep RS from Intavis), (2) dissolving said amino-modified cellulose disk to obtain a solution of a peptide bound to cellulose, and (3) spotting said peptide bound to cellulose on a coated slide glass. The detail of each procedure is as follows.
Said peptide array was used to measure whether each peptide fragment is bound by an IgE antibody in the serum from a WDEIA patient due to an antigen-antibody reaction, or not. This measurement was performed in accordance with the following procedures. […]
(7) Chemiluminescence of the peptide that was treated as described in the above (1) to (6) was measured by using Amersham Imager 600.

[2] = test system: anti-human IgE antibody as a secondary antibody; assay: Epitope mapping (3): alanine scanning ELISA, secondary antibody used alone; format: binding; conditions: alanine-substituted peptides, FIG. 3
Description: FIG. 3 is a diagram showing the result of investigation of positions important for exerting antigenicity in SEQ ID NOs: 22 and 29 by an alanine scanning technique. The number on the horizontal axis denotes a value of coloration intensity at 450 nm measured by an absorption spectrometer (Abs.). In this figure, a double wavy line denotes that a value is not shown, P1 denotes that the serum from patient 1 was used, N1 and N2 denote that the sera from healthy individuals 1 and 2 were used, and 2nd denotes that an anti-human IgE antibody as a secondary antibody was used alone.
(§1) The amino acid sequence of SEQ ID NO: 22 and the amino acid sequence of SEQ ID NO: 29 identified in the above-mentioned (B) were subjected to a technique referred to as alanine scanning (Non Patent Literature 1). Specifically, a library of peptide fragments was prepared by a technique similar to that described above in (B), in which the peptide fragments were produced by substituting one amino acid at a time with alanine in each amino acid sequence of […], starting from the amino acid at an amino terminal side. Then, a technique similar to that described above in (B) was used to measure whether each peptide fragment was bound by the IgE antibody in the serum from a patient and a healthy subject, or not. When alanine substitution of an amino acid at a certain position led to loss or reduction of binding activity to the IgE antibody from the patient and development of binding activity to the IgE antibody from the healthy subject, the amino acid was determined to be an amino acid important for expression of inherent antigenicity or an amino acid affecting expression of inherent antigenicity. […] A common sequence important for expression of inherent antigenicity was discovered by this analysis.
(§2) The result of alanine scanning performed on the amino acid sequence of SEQ ID NO: 22 and the result of alanine scanning performed on the amino acid sequence of SEQ ID NO: 29 are shown in FIG. 3, respectively.

[3] = test system: IgE antibody from the patient; assay: Epitope mapping (3): alanine scanning ELISA, patient serum; format: binding, human; conditions: alanine-substituted peptides; serum from patient 1; FIG. 3
Procedure: as §1, §2

[4] = test system: IgE antibody from the healthy subject; assay: Epitope mapping (3): alanine scanning ELISA, healthy subject serum; format: binding, human; conditions: alanine-substituted peptides; sera from healthy individuals 1 and 2; FIG. 3
Procedure: as §1, §2

| Substance | binding of IgE antibody to peptide spot (chemiluminescence) [1] | binding activity to the anti-human IgE antibody as the secondary antibody (absorbance at 450 nm) [2] | binding activity to the IgE antibody from the patient (absorbance at 450 nm) [3] | binding activity to the IgE antibody from the healthy subject (absorbance at 450 nm) [4] |
| --- | --- | --- | --- | --- |
| SEQ ID NO: 6: peptide of amino acids 221 to 235 of the full-length ω-5 gliadin from bread wheat (SEQ ID NO: 51) (QQFPQQEFPQQQQFP; epitope) | bound, in a manner specific to a patient |  |  |  |
| SEQ ID NO: 13: peptide of amino acids 161 to 175 of the full-length ω-5 gliadin from bread wheat (SEQ ID NO: 51) (PQQQPPQQHQFPQQQ; epitope) | bound, in a manner specific to a patient |  |  |  |
| SEQ ID NO: 7: amino acid at position 3 in SEQ ID NO: 22 substituted with alanine (QQFPQQEAPQQQQFP; epitope) |  | developed little binding activity | retained binding activity; also recorded: substantially increased binding activity | developed little binding activity |
